# Measurements from ChEMBL document CHEMBL1938343, “Lead optimisation of selective non-zinc binding inhibitors of MMP13. Part 2” (Bioorg Med Chem Lett, 2012).
# Legend:
# Collagenase 3 = Collagenase 3 (Homo sapiens, UniProt P45452); assay: Inhibition of recombinant human MMP13 using Mca-Pro-cyclohexyl-Ala-Gly-Nva-His-Ala- Dap(Dnp)-NH2 as substrate by fluorometric analysis; conditions: read-out: pIC50 (converted)
# [1] = target: 72 kDa type IV collagenase (Homo sapiens, UniProt P08253); assay: Inhibition of MMP2 using Mca-Pro-cyclohexyl-Ala-Gly-Nva-His-Ala- Dap(Dnp)-NH2 as substrate by fluorometric analysis; conditions: read-out: pIC50 (converted)
# [2] = Intrinsic clearance in human microsomes; format: ADME, Microsome
# [3] = target: Matrix metalloproteinase-9 (Homo sapiens, UniProt P14780); assay: Inhibition of MMP9 using Mca-Pro-cyclohexyl-Ala-Gly-Nva-His-Ala- Dap(Dnp)-NH2 as substrate by fluorometric analysis; conditions: read-out: pIC50 (converted)
# [4] = target: Macrophage metalloelastase (Homo sapiens, UniProt P39900); assay: Inhibition of MMP12 using Mca-Pro-cyclohexyl-Ala-Gly-Nva-His-Ala- Dap(Dnp)-NH2 as substrate by fluorometric analysis; conditions: read-out: pIC50 (converted)
# [5] = target: Matrix metalloproteinase-14 (Homo sapiens, UniProt P50281); assay: Inhibition of MMP14 using Mca-Pro-cyclohexyl-Ala-Gly-Nva-His-Ala- Dap(Dnp)-NH2 as substrate by fluorometric analysis; conditions: read-out: pIC50 (converted)
# [6] = Intrinsic clearance in Sprague-Dawley rat hepatocytes assessed per 10^6 cells; format: ADME, cell-based, Hepatocyte; conditions: Sprague-Dawley, read-out: CLH
# [7] = target: T1, A disintegrin and metalloproteinase with thrombospondin motifs 1 (Homo sapiens) (UniProt Q9UHI8); assay: Inhibition of ADAM-TS1 dimethoxyfluorescein-Ser-Pro-Leu-Ala-Gln-Ala- Val-Arg-ser-Ser-Arg-Cys-fluorescein
# T1 sequence (whole entry): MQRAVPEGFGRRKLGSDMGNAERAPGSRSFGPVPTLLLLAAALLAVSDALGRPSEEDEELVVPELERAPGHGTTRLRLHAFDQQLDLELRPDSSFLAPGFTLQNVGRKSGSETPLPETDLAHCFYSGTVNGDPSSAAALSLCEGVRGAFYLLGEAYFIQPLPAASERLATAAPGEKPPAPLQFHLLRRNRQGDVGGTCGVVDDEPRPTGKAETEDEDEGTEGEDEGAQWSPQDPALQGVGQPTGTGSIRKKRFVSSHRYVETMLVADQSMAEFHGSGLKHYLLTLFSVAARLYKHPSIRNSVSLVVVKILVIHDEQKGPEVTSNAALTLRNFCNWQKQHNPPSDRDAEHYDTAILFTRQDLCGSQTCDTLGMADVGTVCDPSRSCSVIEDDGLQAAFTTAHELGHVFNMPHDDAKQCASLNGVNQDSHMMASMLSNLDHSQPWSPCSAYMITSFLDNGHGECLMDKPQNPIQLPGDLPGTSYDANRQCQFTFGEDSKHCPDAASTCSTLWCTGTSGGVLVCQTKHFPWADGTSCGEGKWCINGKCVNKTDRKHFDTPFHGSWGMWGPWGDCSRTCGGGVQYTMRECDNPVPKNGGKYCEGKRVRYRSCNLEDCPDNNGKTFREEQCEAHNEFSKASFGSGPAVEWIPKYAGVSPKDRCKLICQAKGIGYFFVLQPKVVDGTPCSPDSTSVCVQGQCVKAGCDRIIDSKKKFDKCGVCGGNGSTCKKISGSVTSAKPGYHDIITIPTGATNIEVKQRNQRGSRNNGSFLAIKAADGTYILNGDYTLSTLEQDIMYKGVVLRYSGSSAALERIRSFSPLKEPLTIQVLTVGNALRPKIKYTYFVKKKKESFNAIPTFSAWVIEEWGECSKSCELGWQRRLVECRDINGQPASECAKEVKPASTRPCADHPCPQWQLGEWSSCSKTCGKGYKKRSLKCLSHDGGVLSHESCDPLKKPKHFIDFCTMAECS
# [8] = target: T2, A disintegrin and metalloproteinase with thrombospondin motifs 4 (Homo sapiens) (UniProt O75173); assay: Inhibition of ADAM-TS4 using dimethoxyfluorescein-Ser-Pro-Leu-Ala-Gln-Ala- Val-Arg-ser-Ser-Arg-Cys-fluorescein as substrate
# T2 sequence (whole entry): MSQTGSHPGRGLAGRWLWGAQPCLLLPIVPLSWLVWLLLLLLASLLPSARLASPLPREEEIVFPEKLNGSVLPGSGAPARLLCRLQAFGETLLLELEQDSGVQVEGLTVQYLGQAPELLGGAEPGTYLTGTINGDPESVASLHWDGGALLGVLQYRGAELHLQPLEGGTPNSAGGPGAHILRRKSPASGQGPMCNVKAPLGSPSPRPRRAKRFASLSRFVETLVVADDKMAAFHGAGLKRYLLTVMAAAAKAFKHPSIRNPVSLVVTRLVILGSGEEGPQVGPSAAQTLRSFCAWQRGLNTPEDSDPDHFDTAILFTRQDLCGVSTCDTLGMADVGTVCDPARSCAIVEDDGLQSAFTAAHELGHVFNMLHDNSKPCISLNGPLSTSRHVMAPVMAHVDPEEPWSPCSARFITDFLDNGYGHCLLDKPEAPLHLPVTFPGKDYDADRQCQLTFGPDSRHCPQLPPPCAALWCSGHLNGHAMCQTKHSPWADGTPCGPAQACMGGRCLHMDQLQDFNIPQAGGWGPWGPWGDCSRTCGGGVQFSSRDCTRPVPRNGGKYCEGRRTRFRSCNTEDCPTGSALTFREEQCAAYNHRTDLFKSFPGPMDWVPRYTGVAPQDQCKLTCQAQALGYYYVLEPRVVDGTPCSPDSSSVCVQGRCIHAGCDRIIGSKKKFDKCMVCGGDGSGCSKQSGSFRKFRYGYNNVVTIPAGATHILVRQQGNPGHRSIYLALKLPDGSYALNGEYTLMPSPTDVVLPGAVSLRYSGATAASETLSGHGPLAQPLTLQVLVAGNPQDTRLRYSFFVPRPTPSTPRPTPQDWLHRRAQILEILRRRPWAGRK
# [9] = target: T3, A disintegrin and metalloproteinase with thrombospondin motifs 5 (Homo sapiens) (UniProt Q9UNA0); assay: Inhibition of ADAM-TS5 using dimethoxyfluorescein-Ser-Pro-Leu-Ala-Gln-Ala- Val-Arg-ser-Ser-Arg-Cys-fluorescein as substrate
# T3 sequence (whole entry): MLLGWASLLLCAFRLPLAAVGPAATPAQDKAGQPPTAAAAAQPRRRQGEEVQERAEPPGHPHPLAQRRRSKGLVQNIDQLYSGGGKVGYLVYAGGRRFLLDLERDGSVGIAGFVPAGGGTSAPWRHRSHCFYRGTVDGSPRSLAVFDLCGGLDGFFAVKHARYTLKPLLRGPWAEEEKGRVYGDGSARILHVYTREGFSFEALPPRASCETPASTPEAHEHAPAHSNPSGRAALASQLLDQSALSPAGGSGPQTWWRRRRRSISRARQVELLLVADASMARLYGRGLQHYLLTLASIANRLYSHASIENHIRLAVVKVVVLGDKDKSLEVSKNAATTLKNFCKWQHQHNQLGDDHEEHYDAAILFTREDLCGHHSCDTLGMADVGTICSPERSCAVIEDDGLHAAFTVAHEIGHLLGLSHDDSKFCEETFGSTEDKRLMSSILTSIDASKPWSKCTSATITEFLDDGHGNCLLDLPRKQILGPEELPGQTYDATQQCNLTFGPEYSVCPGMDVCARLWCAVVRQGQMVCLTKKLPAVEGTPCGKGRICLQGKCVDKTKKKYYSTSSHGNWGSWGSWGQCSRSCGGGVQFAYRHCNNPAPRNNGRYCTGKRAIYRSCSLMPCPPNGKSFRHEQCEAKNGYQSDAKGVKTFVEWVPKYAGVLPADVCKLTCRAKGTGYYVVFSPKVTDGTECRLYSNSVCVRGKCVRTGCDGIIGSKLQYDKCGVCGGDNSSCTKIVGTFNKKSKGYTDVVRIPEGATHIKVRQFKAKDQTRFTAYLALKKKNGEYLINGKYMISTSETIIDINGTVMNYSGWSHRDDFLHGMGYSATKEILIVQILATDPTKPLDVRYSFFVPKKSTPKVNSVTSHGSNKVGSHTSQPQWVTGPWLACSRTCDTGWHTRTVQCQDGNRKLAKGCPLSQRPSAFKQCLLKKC
# [10] = Apparent permeability across apical to basolateral side in human Caco2 cells at 10 uM; format: ADME, cell-based; conditions: Caco-2
# [11] = Apparent permeability across basolateral to apical side in human Caco2 cells at 10 uM; format: ADME, cell-based; conditions: Caco-2
# [12] = Oral bioavailability in rat; format: ADME, organism-based; conditions: in vivo
# [13] = target: MMP-2/MMP-13 (Homo sapiens) (UniProt P08253+P45452); assay: Selectivity ratio of pIC50 for MMP2 to pIC50 for recombinant human MMP13
# MMP-2/MMP-13 (Homo sapiens), sequence (P08253 whole entry, looked up, other chains not shown): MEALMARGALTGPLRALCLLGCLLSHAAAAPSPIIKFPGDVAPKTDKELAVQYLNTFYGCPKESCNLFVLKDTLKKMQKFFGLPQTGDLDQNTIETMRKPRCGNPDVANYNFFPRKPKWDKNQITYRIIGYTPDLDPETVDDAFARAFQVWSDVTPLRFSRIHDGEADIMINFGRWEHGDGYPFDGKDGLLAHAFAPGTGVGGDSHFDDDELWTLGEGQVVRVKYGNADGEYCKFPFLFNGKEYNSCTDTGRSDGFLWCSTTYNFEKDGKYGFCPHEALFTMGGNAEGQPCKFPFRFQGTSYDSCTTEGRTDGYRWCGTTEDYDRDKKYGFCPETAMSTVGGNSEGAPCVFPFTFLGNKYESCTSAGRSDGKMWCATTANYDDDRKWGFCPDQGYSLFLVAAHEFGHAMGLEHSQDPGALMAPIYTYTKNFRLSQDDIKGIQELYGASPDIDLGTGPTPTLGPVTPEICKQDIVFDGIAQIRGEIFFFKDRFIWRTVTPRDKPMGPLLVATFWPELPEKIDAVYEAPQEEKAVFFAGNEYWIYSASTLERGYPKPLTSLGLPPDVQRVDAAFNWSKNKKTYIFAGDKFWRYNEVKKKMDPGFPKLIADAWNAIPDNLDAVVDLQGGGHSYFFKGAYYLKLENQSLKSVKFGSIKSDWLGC
# Macrophage metalloelastase, sequence (P39900 whole entry): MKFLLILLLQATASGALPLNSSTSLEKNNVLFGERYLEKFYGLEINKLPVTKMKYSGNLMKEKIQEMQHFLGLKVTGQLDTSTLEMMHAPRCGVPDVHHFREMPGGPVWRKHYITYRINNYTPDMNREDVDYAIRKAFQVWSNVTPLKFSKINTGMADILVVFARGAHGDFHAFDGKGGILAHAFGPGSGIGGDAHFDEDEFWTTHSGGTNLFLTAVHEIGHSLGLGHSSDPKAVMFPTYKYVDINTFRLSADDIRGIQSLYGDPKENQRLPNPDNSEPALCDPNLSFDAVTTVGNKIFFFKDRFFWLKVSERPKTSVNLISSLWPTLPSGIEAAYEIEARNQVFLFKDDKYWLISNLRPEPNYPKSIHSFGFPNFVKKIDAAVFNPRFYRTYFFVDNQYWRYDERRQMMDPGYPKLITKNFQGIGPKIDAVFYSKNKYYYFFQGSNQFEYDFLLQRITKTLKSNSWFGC
# Matrix metalloproteinase-9, sequence (P14780 whole entry): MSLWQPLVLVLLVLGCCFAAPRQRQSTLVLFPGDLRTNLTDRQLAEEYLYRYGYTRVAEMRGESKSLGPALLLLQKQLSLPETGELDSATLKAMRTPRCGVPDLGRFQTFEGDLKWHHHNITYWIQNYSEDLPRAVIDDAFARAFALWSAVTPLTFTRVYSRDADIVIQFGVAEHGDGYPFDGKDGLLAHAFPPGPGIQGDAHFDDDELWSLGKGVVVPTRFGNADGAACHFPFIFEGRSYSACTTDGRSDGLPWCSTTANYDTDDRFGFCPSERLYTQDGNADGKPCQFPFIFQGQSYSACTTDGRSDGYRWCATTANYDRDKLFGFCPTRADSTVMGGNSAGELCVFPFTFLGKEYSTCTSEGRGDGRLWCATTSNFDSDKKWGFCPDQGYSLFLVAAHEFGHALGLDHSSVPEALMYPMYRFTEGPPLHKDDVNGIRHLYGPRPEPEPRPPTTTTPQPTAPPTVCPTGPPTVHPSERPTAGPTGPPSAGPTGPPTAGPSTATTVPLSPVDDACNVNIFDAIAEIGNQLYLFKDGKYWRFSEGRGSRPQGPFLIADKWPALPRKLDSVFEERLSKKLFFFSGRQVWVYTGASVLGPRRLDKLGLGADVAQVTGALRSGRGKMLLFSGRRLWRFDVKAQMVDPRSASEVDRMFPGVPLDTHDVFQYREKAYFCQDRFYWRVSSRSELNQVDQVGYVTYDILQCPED
# 72 kDa type IV collagenase, sequence (P08253 whole entry): as the sequence (P08253 whole entry, looked up, other chains not shown) above
Compound,IC50 (Collagenase 3),IC50 [1],microsomal CLint [2],IC50 [3],IC50 [4],IC50 [5],hepatocyte CLint [6],INH [7],INH [8],INH [9],Papp A→B at 10 µM [10],Papp B→A at 10 µM [11],bioavailability [12],Ratio pIC50 [13]
CS(=O)(=O)N1CCC(NC(=O)c2ccc(Oc3ccc(C#C[C@]4(O)CN5CCC4CC5)cc3)cc2)CC1,0.0501 µM,7.94 µM,2.9 µL/min/mg,> 10 µM,> 10 µM,> 10 µM,< 2 µL/min/1e6 cells,–,–,–,–,–,–,–
CC(=O)N1CCC(NC(=O)c2ccc(Oc3ccc(C#C[C@]4(O)CN5CCC4CC5)cc3)cc2)CC1,0.0398 µM,5.01 µM,2.5 µL/min/mg,> 10 µM,> 10 µM,> 10 µM,< 2 µL/min/1e6 cells,–,–,–,–,–,–,–
O=C(NC1CCN(C2CC2)CC1)c1ccc(Oc2ccc(C#C[C@]3(O)CN4CCC3CC4)cc2)cc1,0.0794 µM,7.94 µM,4.7 µL/min/mg,> 10 µM,> 10 µM,> 10 µM,–,–,–,–,–,–,–,–
"O=C(NC1CCCS(=O)(=O)C1)c1ccc(Oc2ccc(C#C[C@]3(O)CN4CCC3CC4)cc2)cc1 (single isomer, unassigned; diastereomer 1)",–,–,–,–,–,–,–,> 100 µM,> 10 µM,> 10 µM,–,–,–,–
CNC(=O)N1CCC(NC(=O)c2ccc(Oc3ccc(C#C[C@]4(O)CN5CCC4CC5)cc3)cc2)CC1,0.0501 µM,3.98 µM,< 2 µL/min/mg,> 10 µM,> 10 µM,> 10 µM,–,–,–,–,–,–,–,–
Cc1cc(CN(C)C(=O)c2ccc(Oc3ccc(C#C[C@]4(O)CN5CCC4CC5)cc3)cc2)on1,0.0794 µM,7.94 µM,2.7 µL/min/mg,–,–,–,–,–,–,–,82 nm/s,530 nm/s,3%,–
COc1ccc(CNC(=O)c2ccc(Oc3ccc(C#C[C@]4(O)CN5CCC4CC5)cc3)cc2)nc1,0.0316 µM,> 10 µM,5.6 µL/min/mg,–,–,–,–,–,–,–,–,–,–,> 300
O=C(NC1CCS(=O)(=O)C1)c1ccc(Oc2ccc(C#C[C@]3(O)CN4CCC3CC4)cc2)cc1 (stereo partly specified),0.0794 µM,7.94 µM,< 2 µL/min/mg,> 10 µM,> 10 µM,> 10 µM,< 2 µL/min/1e6 cells,–,–,–,–,–,–,–
N#Cc1cccc(CNC(=O)c2ccc(Oc3ccc(C#C[C@]4(O)CN5CCC4CC5)cc3)cc2)c1,0.0631 µM,> 10 µM,9.9 µL/min/mg,–,–,–,–,–,–,–,–,–,–,–
O=C(NC1CCS(=O)(=O)CC1)c1ccc(Oc2ccc(C#C[C@]3(O)CN4CCC3CC4)cc2)cc1,0.1 µM,> 10 µM,2.5 µL/min/mg,> 10 µM,> 10 µM,> 10 µM,–,–,–,–,–,–,–,–
CS(=O)(=O)Oc1cccc(CNC(=O)c2ccc(Oc3ccc(C#C[C@]4(O)CN5CCC4CC5)cc3)cc2)c1,0.0631 µM,7.94 µM,8.6 µL/min/mg,–,–,–,–,–,–,–,–,–,–,–
O=C(NC1CCCCC1)c1ccc(Oc2ccc(C#C[C@]3(O)CN4CCC3CC4)cc2)cc1,0.0251 µM,> 10 µM,2.9 µL/min/mg,–,–,–,–,–,–,–,–,–,–,–
C[C@@H](NC(=O)c1ccc(Oc2ccc(C#C[C@]3(O)CN4CCC3CC4)cc2)cc1)c1ccncc1,0.0126 µM,3.98 µM,18.8 µL/min/mg,–,–,–,–,–,–,–,–,–,–,> 300
O=C(NC1CCN(C(=O)C2CC2)CC1)c1ccc(Oc2ccc(C#C[C@]3(O)CN4CCC3CC4)cc2)cc1,0.0251 µM,6.31 µM,3.7 µL/min/mg,> 10 µM,> 10 µM,> 10 µM,–,–,–,–,–,–,–,–
